Data taken from patent US8772227B2, “Glucosamine pro-drug” (priority 2011, dated 2014).

Assays:
[1] = Chemical stability (60° C. oven for 48 h); format: physicochemical; conditions: 60° C. for 48 h; <96% considered unstable
Description: Compounds were transferred into transparent glass vials and placed in 60° C. oven for 48 h. Compound with <96% stability are considered unstable.

[2] = Stability in the gut (incubation with homogenized rat stomach or intestine); format: in vitro ADME; conditions: incubated with homogenized rat stomach (pH 1.0) or intestine (pH 7.4); read-out: t1/2 of decomposition in the presence of rat gut
Description: (§1) Pro-drugs were incubated for 2 h with homogenized rat stomach or intestine while the pH is kept at 1.0 or 7.4, respectively. Samples are taken at 30 min interval for the analysis of the pro-drug and GlcN. This procedure was used as a prerequisite to further tests described in Examples 6, 7 and 8. A compound with low stability under this condition was decided to be unsuitable for further test. […] Everted rat gut sacks are immersed in 80 μg/mL (GlcN equivalent) of GlucN HCl or GV-GluN HCl solution. The appearance of glucosamine each compound inside the sack (serosal) was measured. […] Gly-Val-COO-GlcN is GV-GlycN.

[3] = Absorption through everted rat gut; format: in vitro ADME
Description: as §1
A mid line incision was made in the anesthetised rat abdomen, the intestine was exposed and five 10 cm segments of the jejunum are cut. In ice cold Krebs Henseleit buffer, the intestinal content are removed and each segment are everted over a glass rod, tied from one side, a polyethylene tube is inserted into the other side and tied. The segments are filled with buffer and incubated in a perfusion apparatus containing oxygenated Krebs Henseleit buffer at 37° C. The test compound was added to the mucosal (outer surface of the everted gut) and serial samples were collected from both sides. The percent of the movement from outside (mucosal) to inside (serosal) was measured and compared (FIG. 4). […]

[4] = Bioavailability in the rat (plasma GlcN AUC after oral dose); format: in vivo
Description: Prodrugs or GlcN HCl or sulphate were administered to rats in single oral doses equivalent to a fix amount of GlcN. Plasma GlcN concentrations were measured using HPLC in serial sample collected over a period of time. The areas under plasma-concentration-time curves (AUC or relative bioavailability) were calculated and compared (FIGS. 5 and 5a).

[5] = tested on: adjuvant arthritis caused by Mycobacterium butyricum; test: Efficacy against adjuvant arthritis; format: in vivo; conditions: for preventing effect on emergence of adjuvant arthritis: daily doses from day 0, GlcN HCl 90 mg, GV-GlcN 30 mg glucosamine equivalent, FIG. 6; for paw thickness after treatment of established adjuvant arthritis: four days of daily doses from day 14, GlcN 90 mg/kg, GV-GlcN 30 mg/kg GlcN equivalent, FIG. 7
Description: Under anesthesia, rats were injected with 0.2 ml of 50 mg/ml Mycobacterium butyricum suspended in squalene in the base of the tail (day 0). Their paw thickness was measure daily. Within 12-14 days significant increases in paw thickness were noticed, indicative of the emergence if adjuvant arthritis. Repeated daily doses of drugs were administered either right after the time of Mycobacterium injection (to prevent emergence of arthritis) or after the appearance of arthritis (to treat arthritis). Animals were monitored for their arthritis status during the entire length of the experiment.
On day zero, Mycobacterium butyricum is injected to all rats along with daily doses of glucosamine, GV-GlnN or placebo. The placebo group develops severe AA but not the ones that received either treatment. Upon discontinuation of the treatments, AA emerges (FIG. 6).

[6] = oral administration, reference (23); cited from earlier work

Structure (SMILES) | physicochemical stability (percent stable) [1] [%] | half-life [2] [h] | stability after exposure to the gut (no conversion into glucosamine) ([3]; 60 minutes exposure, FIG. 4) | transport across everted rat gut ([3]; mucosal to serosal) [%] | area under the plasma glucosamine concentration-time curve compared with GlcN ([4]; 110 mg/kg (GlcN equivalent), FIG. 5A, n=3-5/group) | mean AUC (bioavailability) of GlcN in rat plasma compared with GlcN HCl ([4]; oral, 110 mg GlcN equivalent, FIG. 5, AUC(0-4)) | preventing effect on emergence of adjuvant arthritis [5] | paw thickness after treatment of established adjuvant arthritis [5] | paw thickness after treatment of established adjuvant arthritis ([5]; listed as GV-GluN) | paw thickness after treatment of established adjuvant arthritis ([5]; listed as GlcN HCl) | AUC of GlcN after oral HCl versus sulphate salt [6]
CC(C)C(NC(=O)CN)C(=O)OCC1OC(O)C(N)C(O)C1O (stereo not shown) [GV-GlcN, (5-amino-3,4,6-trihydroxyoxan-2-yl)methyl 2-(2-aminoacetamido)-3-methylbutanoate] | > 96 | > 16 | greater than 96% | ~80 | significantly greater than GlcN | significantly and substantially greater | prevent the disease | significantly reduce the paw thickness | Significant (p>0.05) reduced paw thickness |  | 
N[C@H]1C(O)O[C@H](CO)[C@@H](O)[C@@H]1O (stereo partly shown) [GlcN, Glucosamine] |  |  |  |  |  |  | prevent the disease | significantly reduce the paw thickness |  | Significant (p>0.05) reduced paw thickness | 
N[C@H]1C(O)O[C@H](CO)[C@@H](O)[C@@H]1O.N[C@H]1C(O)O[C@H](CO)[C@@H](O)[C@@H]1O.O=S(=O)(O)O (stereo partly shown) [GlcN sulfate] |  |  |  |  |  |  |  |  |  |  | equal AUC values
